Measurements taken from ChEMBL document CHEMBL1138276, “Discovery of small-molecule inhibitors of tyrosinase” (Bioorg Med Chem Lett, 2007).

Experiments:
[1] = target: T1, Tyrosinase (Agaricus bisporus) (UniProt O42713); test: Inhibition of mushroom tyrosinase at 15 uM
T1 sequence (whole entry): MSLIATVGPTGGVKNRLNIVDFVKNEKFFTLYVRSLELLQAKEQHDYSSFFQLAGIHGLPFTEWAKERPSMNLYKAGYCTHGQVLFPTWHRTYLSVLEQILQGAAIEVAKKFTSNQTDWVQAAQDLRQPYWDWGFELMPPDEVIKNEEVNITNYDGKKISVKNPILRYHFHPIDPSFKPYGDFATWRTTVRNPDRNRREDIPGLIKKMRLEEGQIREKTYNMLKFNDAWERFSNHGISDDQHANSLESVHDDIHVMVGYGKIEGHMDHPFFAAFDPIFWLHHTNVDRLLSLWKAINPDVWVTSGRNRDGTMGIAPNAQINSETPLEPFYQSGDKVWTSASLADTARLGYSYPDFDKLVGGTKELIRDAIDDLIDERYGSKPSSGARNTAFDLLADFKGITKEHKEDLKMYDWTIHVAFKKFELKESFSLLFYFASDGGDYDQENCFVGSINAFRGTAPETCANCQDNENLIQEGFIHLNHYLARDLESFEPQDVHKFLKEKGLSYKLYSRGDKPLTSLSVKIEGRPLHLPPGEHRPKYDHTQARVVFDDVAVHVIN

[2] = target: T1, Tyrosinase (Agaricus bisporus); test: Inhibition of mushroom tyrosinase at 1.7 uM
[3] = (§1) Decrease of pigmentation in human MNT1 cells at 15 uM after 4 days; assay type: functional; conditions: MNT-1, 96 h
Tyrosinase = target: T2, Tyrosinase (Agaricus bisporus, UniProt O42713); test: Inhibition of mushroom tyrosinase
T2 sequence (O42713 whole entry): T1 sequence (whole entry)

MNT1 = test: as §1; assay type: functional

inhibition [1]	inhibition [2]	IC50 (Tyrosinase)	SMILES	inhibition at 15 µM [3]	Activity (MNT1)
52%	44%		C/C(=N\NC(=S)Nc1cccc(C)c1)c1cccc(N)c1	38%	
			O=C(O)c1cccc(Nc2nc(-c3ccc(O)cc3O)cs2)c1	-6%	
51%	47%		CCCCCOc1ccc(NC2=C(N3CCCC3)C(=O)c3ccccc3C2=O)cc1	48%	
66%	47%		Cc1ccccc1NC(=O)CSC(N)=O	-15%	
40%	25%		C/C(=N\NC(=N)SC1CC(=O)N(c2ccc(Cl)cc2)C1=O)c1cccs1 (stereo not drawn)	19%	
48%	23%		O=S(=O)(c1ccc(NC(=S)Nc2ccccc2)cc1)N1CCCCC1	56%	
		100 nM	Cc1ccnc(Nc2nc(-c3ccc(O)cc3O)cs2)c1	83%	
54%	41%		S=c1[nH]c(-c2ccc3c(c2)OCO3)cn1-c1ccc(Oc2ccccc2)cc1	44%	
43%	40%		COc1ccc2nc(SCC(=O)Nc3ccc4c(c3)OCCO4)[nH]c2c1	34%	
			Oc1ccc(-c2csc(Nc3ccccn3)n2)c(O)c1	54%	
46%	36%		CC(=O)Nc1ccc(Nc2nc(-c3c(C)nc4ccc(C)cn34)cs2)cc1		Toxic
			Cc1ccc(-c2csc(Nc3cc(C)ccn3)n2)cc1	75%	
			Cc1cccnc1Nc1nc(-c2ccc(O)cc2O)cs1	74%	
			Cc1ccn2c(-c3csc(Nc4ccccn4)n3)c(C)nc2c1	48%	
		2000 nM	COc1ccc(-c2nc(-c3ccc(O)cc3O)cs2)c(OC)c1	91%	
